From patent publication US7179614B2, “Screening methods to identify compounds that modulate type I phosphodiesterase (PDE) activity” (Mount Sinai School of Medicine, priority 2000, dated 2007)

Assays:
[1] = system: PDEs in bovine taste tissue fractions; test: PDE assay across anion exchange fractions of taste papillae extract; format: biochemical; settings: 100 μM peptide or 1 mM CaCl2 and 4 μg/ml CaM; for stimulation of cGMP hydrolytic activity: 1 μM cGMP; for stimulation of cAMP hydrolysis: 1 μM cAMP
Protocol: (§1) Preparation of taste extract. 1–2 gm circumvallate taste papillae or fungiform papillae from fresh bovine tongues were dissected and homogenized in a buffer containing 20 mMTris-Cl pH 7.5, 1 mM EDTA, 1 mM DTT, 10% glycerol, 10 μg/ml leupeptin, 10 μg/ml aprotinin, 100 μM AEBSF and 10 μg/ml pepstatin. Homogenization was carried out using a Polytron homogenizer. The homogenate was first spun at 2500×g for 10 minutes at 4° C. and the resulting supernatant was spun at 100,000×g for 30 minutes at 4° C. The supernatant of the second spin was checked for PDE activity and fractionated by anion exchange chromatography.
(§2) Anion Exchange Chromatography. Supernatant prepared from taste papillae was loaded at 1 ml/min on a DEAE-10 anion exchange column which had been equilibrated with buffer A (20 mM Tris-HCl pH 7.5, 2 mM EDTA, 20 mM β-mercapto ethanol). The column was washed in buffer A for 15 minutes or until protein was no longer detected in the buffer. Bound protein activity was eluted at a flow rate of 2 ml/min with a linear gradient (0–100%) of buffer B (buffer A+1 M NaCl) over 45 minutes Fractions were collected at 4° C. and assayed for PDE Activity. Aliquots of each fraction were boiled in sample buffer for Western blot analysis.
(§3) PDE Assays and CaM Affinity on Beads. PDE assays followed established procedures (Sonnenburg et al., Methods 1998, 14:3–19). All assays were performed at 30° C. using either 1 μM cAMP or between 0.2 and 1 μM cGMP as substrate in the presence of 1 mM EGTA (basal), 1 mM CaCl2 plus 4 μg/ml CaM (Ca^2+/CaM) or 100 μM effector activation peptide (Gαt-rod) peptide.

PDE1A1 = biological target: T1, PDE1A1 (Bos taurus, UniProt P14100); test: PDE assay of recombinant PDE over-expressed in HEK-293 cells; format: biochemical; settings: HEK-293 cell homogenate; cGMP substrate; 100 μM peptide or 1 mM CaCl2 and 4 μg/ml CaM
T1 construct: made in house; host or cells: HEK 293 cells, transient transfection, sonicated lysate
T1 sequence (P14100 1-514 isoform P14100-2): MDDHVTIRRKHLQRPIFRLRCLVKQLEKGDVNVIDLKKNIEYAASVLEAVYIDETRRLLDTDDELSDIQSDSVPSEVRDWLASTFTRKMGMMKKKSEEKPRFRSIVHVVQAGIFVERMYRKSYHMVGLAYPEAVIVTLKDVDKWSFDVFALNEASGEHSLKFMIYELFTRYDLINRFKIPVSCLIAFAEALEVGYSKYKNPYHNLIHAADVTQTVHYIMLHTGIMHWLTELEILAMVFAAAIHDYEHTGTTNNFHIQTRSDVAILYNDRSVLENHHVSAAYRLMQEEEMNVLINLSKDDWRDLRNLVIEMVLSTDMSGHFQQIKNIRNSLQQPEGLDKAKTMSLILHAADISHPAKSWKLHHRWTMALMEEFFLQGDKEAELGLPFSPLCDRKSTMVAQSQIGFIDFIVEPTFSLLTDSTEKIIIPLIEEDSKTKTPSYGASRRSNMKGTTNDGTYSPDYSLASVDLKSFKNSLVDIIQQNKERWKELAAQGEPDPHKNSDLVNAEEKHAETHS
Protocol: as §3
(§4) Over-expression and Assay of Recombinant PDEs. HEK 293 cells were cultured in Eagle's MEM with 2 mM […], Earle's balanced salt solution, 1.5 g/L sodium bicarbonate, 0.1 mM non-essential amino acids, 1 mM sodium pyruvate, and 10% heat-inactivated fetal calf serum. HEK 293 cells were seeded at 0.5×10^6 per well in a 6 well dish. After 24 hours, cells were transfected with DNA constructs using Gene Porter (Gene Therapy Systems), a lipid-based transfection reagent. Cells were transfected with 6 μg DNA (PDE1A1, PDE1A2 or PDE1C3) and 30 μl transfection reagent in serum free media in a volume of 1 ml. After 5 hours, the cells were supplemented with 1 ml media containing twice serum. 24 hours later, the cells were harvested by rinsing twice with PBS, scraping the cells into 200 μl of buffer containing 20 mM Tris-Cl pH 7.5, protease inhibitors (Sigma P- 8340), 1 mM 4-(2-aminoethyl) benzenesulfonyl fluoride (AEBSF), 15 μM pepstatin A, 14 μM trans-epoxysuccinyl-L-leucylamido(4-guanidino) butane (E-64), 40 μM bestatin, 22 μM leupeptin, and 0.8 μM aprotinin. Cells were sonicated in 3 five second bursts at approximately 10 Watts, and the lysates were used as the source of enzyme in the PDE assay.

PDE1A2 = biological target: T2, PDE1A2 (Bos taurus, UniProt P14100); test: as above; format: biochemical; settings: HEK-293 cell homogenate; cGMP substrate; 100 μM peptide or 1 mM CaCl2 and 4 μg/ml CaM
T2 construct: made in house; host or cells: HEK 293 cells, transient transfection, sonicated lysate
T2 sequence (P14100 whole entry): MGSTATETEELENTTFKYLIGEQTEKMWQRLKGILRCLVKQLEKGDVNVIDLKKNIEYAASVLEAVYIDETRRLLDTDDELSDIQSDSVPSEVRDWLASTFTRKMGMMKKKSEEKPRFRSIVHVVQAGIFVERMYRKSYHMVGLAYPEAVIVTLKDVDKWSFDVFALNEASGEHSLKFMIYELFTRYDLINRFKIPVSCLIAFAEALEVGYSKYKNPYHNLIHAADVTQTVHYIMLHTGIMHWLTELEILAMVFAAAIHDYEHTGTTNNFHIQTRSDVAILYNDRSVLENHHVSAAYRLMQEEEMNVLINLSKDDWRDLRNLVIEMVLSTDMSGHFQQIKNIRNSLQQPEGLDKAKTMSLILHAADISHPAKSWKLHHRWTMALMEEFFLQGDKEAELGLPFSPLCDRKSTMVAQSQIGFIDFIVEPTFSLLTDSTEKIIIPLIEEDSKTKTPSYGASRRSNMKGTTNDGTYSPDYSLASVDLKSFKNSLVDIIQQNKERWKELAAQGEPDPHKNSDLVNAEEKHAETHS
Protocol: as §3, §4

PDE1C3 = biological target: T3, PDE1C3 (Homo sapiens, UniProt Q14123); test: as above; format: biochemical; settings: HEK-293 cell homogenate; cGMP substrate; 100 μM peptide or 1 mM CaCl2 and 4 μg/ml CaM
T3 construct: made in house; host or cells: HEK 293 cells, transient transfection, sonicated lysate
T3 sequence (Q14123 whole entry): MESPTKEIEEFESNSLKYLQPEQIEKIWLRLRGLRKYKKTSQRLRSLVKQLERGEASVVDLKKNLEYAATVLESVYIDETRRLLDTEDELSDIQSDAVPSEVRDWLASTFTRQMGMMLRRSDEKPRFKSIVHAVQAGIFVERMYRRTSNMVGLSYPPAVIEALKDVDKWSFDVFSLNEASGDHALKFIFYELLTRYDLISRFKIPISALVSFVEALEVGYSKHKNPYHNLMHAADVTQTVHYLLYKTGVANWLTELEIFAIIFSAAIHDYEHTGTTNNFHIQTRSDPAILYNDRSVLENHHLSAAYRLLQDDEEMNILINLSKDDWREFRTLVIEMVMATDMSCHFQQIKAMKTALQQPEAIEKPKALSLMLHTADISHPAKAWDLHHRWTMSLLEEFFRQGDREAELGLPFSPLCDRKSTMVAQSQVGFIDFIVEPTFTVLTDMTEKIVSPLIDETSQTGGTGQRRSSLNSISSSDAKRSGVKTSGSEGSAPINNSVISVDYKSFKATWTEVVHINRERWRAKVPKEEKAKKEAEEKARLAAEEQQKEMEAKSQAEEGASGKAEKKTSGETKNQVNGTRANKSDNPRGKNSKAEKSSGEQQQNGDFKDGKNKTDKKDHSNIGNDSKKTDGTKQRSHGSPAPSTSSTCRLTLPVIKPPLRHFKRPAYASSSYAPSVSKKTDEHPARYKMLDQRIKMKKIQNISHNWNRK
Protocol: as §3, §4

[2] = system: PDE1A present in fractions 6 and 11; test: PDE assay on anion exchange fractions 6 and 11 of taste tissue; format: biochemical, bovine
Protocol: as §1, §2, §3
Specificity of the calmodulin affinity beads was checked by doing an affinity chromatography purification in the presence of 2 mM EGTA instead of CaCl2. The beads were incubated with the appropriate fractions at 4° C. for 1 hour, then spun for 2 minutes and the supernatant and pellet kept separately. The beads were then washed in the same buffer and resuspended in the presence of protease inhibitors. PDE activity was checked on the beads and in the supernatant. CaCl2 was compensated in the PDE assays when the CaM affinity was done in presence of excess EGTA.

PDE 1 = settings: Yan et al., J. Biol. Chem. 1996; cited from earlier work

Molecule	stimulation of cGMP hydrolytic activity ([1]; first peak, fractions 6–7)	stimulation of cAMP hydrolysis ([1]; first three peaks (fractions 6–7; 10–12; 13–15))	stimulation of cAMP hydrolysis ([1]; fourth peak, fractions 19–23 (PDE4))	stimulation of cGMP hydrolytic activity ([1]; fourth peak, fractions 21–23)	stimulation of cGMP hydrolytic activity ([1]; second peak, fractions 10–12)	stimulation of cGMP hydrolytic activity ([1]; third peak, fractions 13–15)	stimulation of recombinant PDE activity (PDE1A1)	stimulation of recombinant PDE activity (PDE1A2)	stimulation of recombinant PDE activity (PDE1C3)	stimulation of PDE activity ([2]; fractions 6 and 11, 100 μM peptide, 1 μM cGMP)	IC50 (PDE 1)	inhibition of peptide stimulated activity of PDE1A bound to calmodulin beads ([2]; PDE1A bound to calmodulin beads, Gαt-rod peptide stimulated)	inhibition of peptide stimulated PDE activity ([2]; fractions 6 and 11, 1 μM cGMP, 100 μM Gαt-rod peptide)	inhibition of calmodulin stimulated PDE activity ([2]; fractions 6 and 11, 1 μM cGMP, 1 mM CaCl2 and 4 μg/ml CaM)
Gαt-rod peptide: peptide corresponding to the PDE effector-interaction-region of rod transducin (residues 293–314 of transducin Gα) (EDAGNYIKVQFLELNMRRDVKE)	activated	show stimulation	neither Ca^2+/CaM nor Gαt-rod peptide dependent	not stimulated above the basal level	activated	greatest activity when stimulated	stimulated	stimulated	stimulated	stimulated				
CN1C(=O)c2[nH]c(Cc3ccc(C(F)(F)F)cc3)nc2N2C1=N[C@@H]1CCC[C@@H]12 [SCH 51866]											100 nM	also inhibited peptide stimulated activity of PDE1A bound to calmodulin beads	also inhibited peptide stimulated activity	90%
